Laboratory results taken from patent US9062070B2, “Inhibitors of the renal outer medullary potassium channel” (Merck Sharp & Dohme Corp., priority 2011, dated 2015).
pIC50: −log10 of the molar value.

What was measured:
[1] = target: Kir1.1 (ROMK1) (Homo sapiens (Human), UniProt P48048); test: Electrophysiology Assay (whole cell voltage clamp, IonWorks Quattro); format: cell-based; details: Chinese hamster ovary cells stably expressing Kir1.1; block during voltage step to 0 mV
Protocol: Block of Kir1.1 (ROMK1) currents was examined by whole cell voltage clamp (Hamill et. al. […] Prior to an experiment, Kir1.1 expression was induced by overnight incubation with 1 mM sodium butyrate. […] After centrifugation, the cell pellet was resuspended in approximately 4.0 mL of bath solution and placed in the IonWorks instrument. The intracellular solution consisted of (in mM): 80 K gluconate, 40 KCl, 20 KF, 3.2 MgCl2, 3 EGTA, 5 Hepes, pH 7.4. […] Amphotericin B (Sigma A-4888) was prepared as a 40 mg/mL solution in DMSO. Voltage protocols and current recordings were performed using the IonWorks HT software/hardware system. […] No correction for liquid junction potentials was used. The test pulse, consisting of a 100 ms step to 0 mV from a holding potential of −70 mV, followed by a 100 ms voltage ramp from −70 mV to +70 mV, was applied before and after a 6 min compound incubation period. Test compounds were prepared by diluting DMSO stock solutions into the bath solution at 3× the final concentration and placed in the instrument in 96-well polypropylene plates. Current amplitudes were measured using the IonWorks software. To assess compound potency, the fractional block during the voltage step to 0 mV was calculated in Microsoft Excel (Microsoft, Redmond, Calif.), and dose-response curves were fitted with Igor Pro 4.0 (WaveMetrics, Lake Oswego, Oreg.).

[2] = target: hROMK (hKir1.1) (Homo sapiens (Human), UniProt P48048); test: Thallium Flux Assay (ROMK channel functional thallium flux, FLIPR-Tetra); format: cell-based; details: HEK293 cells stably expressing hROMK (hKir1.1)
Protocol: HEK293 cells stably expressing hROMK (hKir1.1) were grown at 37° C. in a 10% CO2 humidified incubator in complete growth media: Dulbecco's Modified Eagle Medium supplemented with non-essential amino acids, Penicillin/Streptomycin/Glutamine, G418 and FBS. At >80% confluency, aspirate the media from the flask and rinse with 10 mL Calcium/Magnesium-free PBS. Add 5 mL of 1× trypsin (prepared in Ca/Mg Free PBS) to T-225 flask and return flask to 37° C./CO2 incubator for 2-3 minutes. To dislodge the cell, gently bang the side of the flask with your hand. Triturate the cells completely and then transfer the cells to 25 mL complete media. Centrifuge at 1,500 rpm for 6 min followed by resuspension in complete growth media and determine cell concentration. For typical re-seeding, 4E6 cells/T-225 flask will attain>80% confluency in 4 days. Under ideal growth conditions and appropriate tissue culture practices, this cell line is stable for 40-45 passages.
• FluxOR™ Reagent (Component A) • FluxOR™ Assay Buffer (Component B)—10× Concentrate • PowerLoad™ Concentrate (Component C)—100× Concentrate • Probenecid (Component D)—Lyophilized sample is kept at −20° C. Water soluble, 100× after solubilization in 1 mL water. Store at 4° C. • FluxOR™ Chloride-free Buffer (Component E)—5× Concentrate • Potassium sulfate (K2SO4) Concentrate (Component F)—125 mM in water. Store at 4° C. • Thallium sulfate (Tl2SO4) Concentrate (Component G)—50 mM in water. Store at 4° C. • DMSO (dimethyl sulfoxide, Component H)—1 mL (100%) Reagent Preparation: FluxOR Working Solutions • 1000× FluxOR™ Reagent: Reconstitute a vial of component A in 100 μl DMSO; Mix well; Store 10 μl aliquots at −20° C. • 1× FluxOR™ Assay Buffer: Dilute Component B 10-fold with water; Adjust pH to 7.4 with Hepes/NaOH; Filter and store at 4° C. • Probenecid/Assay Buffer: 100 mL of 1× FluxOR™ Assay Buffer; 1 mL of reconstituted component D; Store at 4° C. • Loading Buffer (per microplate): 10 μl 1000× FluxOR™ Reagent; 100 μl component C; 10 mL Probenecid/Assay Buffer • Compound Buffer (per microplate): 20 mL Probenecid/Assay Buffer; 0.3 mM ouabain (10 mM ouabain in water can be stored in amber bottle/aluminum foil at room temperature); Test compound • 1× FluxOR™ Chloride-Free Buffer: Prepare 1× working solution in water. Can be stored at room temperature • Stimulant Buffer (prepared at 5× final concentration in 1× FluxOR™ Chloride-Free Buffer): 7.5 mM Thallium sulfate and 0.75 mM Potassium sulfate (to give a final assay concentration of 3 mM Thallium/0.3 mM Potassium). Store at 4° C. when not in use. If kept sterile, this solution is good for months. Assay Protocol—
The ROMK channel functional thallium flux assay is performed in 384 wells, using the FLIPR-Tetra instrument. HEK-hKir1.1 cells are seeded in Poly-D-Lysine microplates and kept in a 37° C.-10% CO2 incubator overnight. On the day of the experiment, the growth media is replaced with the FluxOR™ reagent loading buffer and incubated, protected from light, at ambient temperature (23-25° C.) for 90 min. The loading buffer is replaced with assay buffer±test compound followed by 30 min incubation at ambient temperature, where the Thallium/Potassium stimulant is added to the microplate.
• 1. Seed HEK-hKir1.1 cells (50 μl at 20,000 cells/well) in 384-well PDL coated Microplates • 2. Allow cells to adhere overnight in humidified 37° C./10% CO2 incubator • 3. Completely remove cell growth media from microplate and replace with 25 μl loading buffer • 4. Incubate Microplate at room temperature, protected form light, for 90 min • 5. Remove loading buffer and replace with 25 μl 1× Assay Buffer±test compound. • 6. Incubate microplate at room temperature, protected form light, for 30 min • 7. At FLIPR-Tetra 384: Add stimulant (Thallium/Potassium) solution to microplate and monitor fluorescence. Excitation=400 nm, Emission=460 & 580 nm. Collect data for ˜10 min. Data Calculation—

Kir1.1 (ROMK1), sequence (P48048 whole entry): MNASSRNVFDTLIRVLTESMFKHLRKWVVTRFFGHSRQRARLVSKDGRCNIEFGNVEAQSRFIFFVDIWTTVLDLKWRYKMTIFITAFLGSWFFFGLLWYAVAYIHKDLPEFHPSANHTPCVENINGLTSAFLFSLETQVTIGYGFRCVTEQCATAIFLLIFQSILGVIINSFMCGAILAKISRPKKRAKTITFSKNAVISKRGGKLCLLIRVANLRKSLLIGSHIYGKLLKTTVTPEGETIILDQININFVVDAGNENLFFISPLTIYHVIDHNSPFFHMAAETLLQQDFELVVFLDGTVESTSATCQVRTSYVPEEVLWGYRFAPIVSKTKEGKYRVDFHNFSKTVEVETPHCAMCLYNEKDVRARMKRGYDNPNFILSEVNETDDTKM
hROMK (hKir1.1), sequence (P48048 whole entry): as above

Q: Which results are given for `COc1cc(F)c([C@H]2CN3CCN(C(=O)C4CCc5nc(-n6cnnn6)ccc54)C[C@@H]3CO2)cc1C#N` (stereo partly shown) [Example 77]?
A: pIC50 [1]: 6.54; pIC50 [2]: 6.40

Q: Which results are given for `N#Cc1cc([C@@H]2CN3CCN(C(=O)C4CCc5nc(-n6cnnn6)ncc54)C[C@H]3CO2)ccc1F` (stereo partly shown) [Example 79]?
A: pIC50 [1]: 6.72; pIC50 [2]: 6.68

Q: Which results are given for `N#Cc1cc([C@@H]2CN3CCN(C(=O)C4CCc5nc(-n6cnnn6)ncc54)C[C@@H]3CO2)ccc1F` (stereo partly shown) [Example 80]?
A: pIC50 [1]: 6.92; pIC50 [2]: 6.59

Q: With `N#Cc1c(F)ccc([C@@H]2CN3CCN(C(=O)C4CCc5nc(-n6cnnn6)ncc54)C[C@@H]3CO2)c1Cl` (stereo partly shown) [Example 81] as the compound, how does the pIC50 [1] read?
A: 7.22

Q: What about the pIC50 [2] of the same compound?
A: 6.77

Q: Which results are given for `N#Cc1c(F)ccc([C@@H]2CN3CCN(C(=O)C4CCc5nc(-n6cnnn6)ncc54)C[C@@H]3CO2)c1Cl` (stereo partly shown) [Example 82]?
A: pIC50 [1]: 7.30; pIC50 [2]: 6.85

Q: How did the pIC50 [1] turn out when `N#Cc1c(F)ccc([C@H]2CN3CCN(C(=O)C4CCc5nc(-n6cnnn6)ncc54)C[C@@H]3CO2)c1Cl` (stereo partly shown) [Example 83] was run?
A: 7.10

Q: And the pIC50 [2]?
A: 6.44

Q: With `Cc1c([C@@H]2CN3CCN(C(=O)C4CCc5cc(-n6cnnn6)cnc54)C[C@@H]3CO2)ccc(F)c1C#N` (stereo partly shown) [Example 91] as the compound, how does the pIC50 [1] read?
A: 6.85

Q: And the pIC50 [2]?
A: 6.26

Q: `Cc1c([C@H]2CN3CCN(C(=O)C4CCc5cc(-n6cnnn6)ncc54)C[C@H]3CO2)ccc(C#N)c1F` (stereo partly shown) [Example 93] was tested. Which pIC50 [1] did it give?
A: 6.74

Q: What about the pIC50 [2] of the same compound?
A: 6.37

Q: What does the source list for `Cc1c([C@H]2CN3CCN(C(=O)C4CCc5cc(-n6cnnn6)ncc54)C[C@H]3CN2)ccc(F)c1C#N` (stereo partly shown) [Example 97]?
A: pIC50 [1]: 7.05; pIC50 [2]: 6.80

Q: What does the source list for `Cc1c([C@@H]2CN3CCN(C(=O)C4CCc5nc(-n6cnnn6)ccc54)C[C@H]3CN2)ccc(F)c1C#N` (stereo partly shown) [Example 98]?
A: pIC50 [1]: 6.77; pIC50 [2]: 6.41

Q: With `Cc1c([C@@H]2CN3CCN(C(=O)C4CCc5cc(-n6cnnn6)cnc54)C[C@H]3CN2)ccc(F)c1C#N` (stereo partly shown) [Example 99] as the compound, how does the pIC50 [1] read?
A: 6.46

Q: What about the pIC50 [2] of the same compound?
A: 6.37

Q: With `Cc1c([C@@H]2CN3CCN(C(=O)C4CCc5cc(-n6cnnn6)cnc54)C[C@H]3CN2)ccc(F)c1C#N` (stereo partly shown) [Example 100] as the compound, how does the pIC50 [1] read?
A: 6.55

Q: And the pIC50 [2]?
A: 6.12

Q: With `Cc1c([C@H]2CN3CCN(C(=O)C4CCc5nc(-n6cnnn6)ncc54)C[C@H]3CN2)ccc(F)c1C#N` (stereo partly shown) [Example 102] as the compound, how does the pIC50 [1] read?
A: 7.00

Q: What about the pIC50 [2] of the same compound?
A: 6.35

Q: `Cc1c([C@H]2CN3CCN(C(=O)C4CCc5cc(-n6cnnn6)ncc54)C[C@@H]3CN2)ccc(F)c1C#N` (stereo partly shown) [Example 103] was tested. Which pIC50 [1] did it give?
A: 6.96

Q: And the pIC50 [2]?
A: 6.74

Q: What does the source list for `Cc1c([C@H]2CN3CCN(C(=O)C4CCc5cc(-n6cnnn6)ncc54)C[C@@H]3CN2)ccc(F)c1C#N` (stereo partly shown) [Example 104]?
A: pIC50 [1]: 6.92; pIC50 [2]: 6.44

Q: How did the pIC50 [1] turn out when `Cc1c([C@@H]2CN3CCN(C(=O)C4CCc5cc(-n6cnnn6)ncc54)C[C@@H]3CN2)ccc(F)c1C#N` (stereo partly shown) [Example 105] was run?
A: 7.10

Q: What about the pIC50 [2] of the same compound?
A: 6.85

Q: How did the pIC50 [1] turn out when `Cc1c([C@@H]2CN3CCN(C(=O)C4CCc5cc(-n6cnnn6)ncc54)C[C@@H]3CN2)ccc(F)c1C#N` (stereo partly shown) [Example 106] was run?
A: 6.92

Q: What about the pIC50 [2] of the same compound?
A: 6.40
